Columns and labels:
Type in all cases: cell-based
[1] = tested on: Methicillin Resistant Staphylococcus aureus (MRSA); experiment: in vitro contact-time test on MRSA
Method: (§1) The solution from the example was tested in vitro on a mucoid strain of Pseudomonas aeruginosa, Burkholderia cepacia and Methicillin Resistant Staphylococcus Aureus.
Methicillin Resistant Staphylococcus aureus (MRSA)

[2] = tested on: mucoid strain of Pseudomonas aeruginosa; experiment: in vitro contact-time test on a mucoid strain of Pseudomonas aeruginosa
Method: as §1

Burkholderia cepacia = experiment: in vitro contact-time test on Burkholderia cepacia
Method: as §1
Burkholderia cenocepacia J2315 (ATCC BAA 245 known to be resistant to Tobramycin and Colistin (Holden 2009, Soiza 2004)), derived from patients with cystic fibrosis.

With `N#CSO` [500 μM OSCN, hypothiocyanite] the bacterial count ([1]; contact time 0 hours) was 4.15 log CFU/ml, the bacterial count ([1]; contact time 0.5 hours) was 3.80 log CFU/ml and the bacterial count ([1]; contact time 1 hour) was 3.70 log CFU/ml. The bacterial count ([1]; contact time 2 hours) was 3.33 log CFU/ml, the bacterial count ([1]; contact time 4 hours) was 2.89 log CFU/ml and the bacterial count ([1]; contact time 6 hours) was 2.25 log CFU/ml. The bacterial count ([1]; contact time 24 hours) was 1.97 log CFU/ml, the bacterial count ([2]; contact time 0 hours) was 4.14 log CFU/ml and the bacterial count ([2]; contact time 0.5 hours) was 3.23 log CFU/ml. It also gave a bacterial count ([2]; contact time 1 hour) of 3.16 log CFU/ml, a bacterial count ([2]; contact time 2 hours) of 2.98 log CFU/ml and a bacterial count ([2]; contact time 4 hours) of 2.08 log CFU/ml. It also gave a bacterial count ([2]; contact time 6 hours) of 1.90 log CFU/ml, a bacterial count ([2]; contact time 24 hours) of 1.78 log CFU/ml and a bacterial count (Burkholderia cepacia; contact time 0 hours) of 4.41 log CFU/ml. The bacterial count (Burkholderia cepacia; contact time 0.5 hours) was 3.64 log CFU/ml, the bacterial count (Burkholderia cepacia; contact time 1 hour) was 3.56 log CFU/ml and the bacterial count (Burkholderia cepacia; contact time 2 hours) was 3.03 log CFU/ml. For the same compound, the bacterial count (Burkholderia cepacia; contact time 4 hours) was 2.08 log CFU/ml, the bacterial count (Burkholderia cepacia; contact time 6 hours) was 1.98 log CFU/ml and the bacterial count (Burkholderia cepacia; contact time 24 hours) was 1.78 log CFU/ml.

Source: patent publication US9078859B2, “Use of a synergistic combination of hypothiocyanite and/or hypohalite ions and lactoferrin for preparing a treatment for cystic fibrosis” (ALAXIA, priority 2009, dated 2015)
